Measured values published in US11572590B2, “Methods for evaluating tumor cell spheroids using 3D microfluidic cell culture device” (Dana-Farber Cancer Institute, Inc., priority 2017, dated 2023).
Like-named read-outs stand apart in the source and are kept apart here.

Assays:
Assay in all cases: SelectScreen Kinase Profiling, single point inhibition and IC50 for off-target kinases
Format in all cases: biochemical
off-target kinases [1] = molecular target: off-target kinases (Homo sapiens, UniProt Q9UEW8); conditions: STK39 (STLK3), LanthaScreen
off-target kinases [2] = molecular target: off-target kinases (Homo sapiens, UniProt O00443); conditions: PIK3C2A (PI3K-C2 alpha); Cmpd1 1000 μM; ATP Km app; Adapta
off-target kinases [3] = molecular target: off-target kinases (Homo sapiens, UniProt Q02779); conditions: MAP3K10 (MLK2), LanthaScreen Binding
off-target kinases [4] = molecular target: T1, off-target kinases (Homo sapiens, UniProt P29322); conditions: EPHA8, ZLYTE, ATP Km app
T1 sequence (P29322 28-1005): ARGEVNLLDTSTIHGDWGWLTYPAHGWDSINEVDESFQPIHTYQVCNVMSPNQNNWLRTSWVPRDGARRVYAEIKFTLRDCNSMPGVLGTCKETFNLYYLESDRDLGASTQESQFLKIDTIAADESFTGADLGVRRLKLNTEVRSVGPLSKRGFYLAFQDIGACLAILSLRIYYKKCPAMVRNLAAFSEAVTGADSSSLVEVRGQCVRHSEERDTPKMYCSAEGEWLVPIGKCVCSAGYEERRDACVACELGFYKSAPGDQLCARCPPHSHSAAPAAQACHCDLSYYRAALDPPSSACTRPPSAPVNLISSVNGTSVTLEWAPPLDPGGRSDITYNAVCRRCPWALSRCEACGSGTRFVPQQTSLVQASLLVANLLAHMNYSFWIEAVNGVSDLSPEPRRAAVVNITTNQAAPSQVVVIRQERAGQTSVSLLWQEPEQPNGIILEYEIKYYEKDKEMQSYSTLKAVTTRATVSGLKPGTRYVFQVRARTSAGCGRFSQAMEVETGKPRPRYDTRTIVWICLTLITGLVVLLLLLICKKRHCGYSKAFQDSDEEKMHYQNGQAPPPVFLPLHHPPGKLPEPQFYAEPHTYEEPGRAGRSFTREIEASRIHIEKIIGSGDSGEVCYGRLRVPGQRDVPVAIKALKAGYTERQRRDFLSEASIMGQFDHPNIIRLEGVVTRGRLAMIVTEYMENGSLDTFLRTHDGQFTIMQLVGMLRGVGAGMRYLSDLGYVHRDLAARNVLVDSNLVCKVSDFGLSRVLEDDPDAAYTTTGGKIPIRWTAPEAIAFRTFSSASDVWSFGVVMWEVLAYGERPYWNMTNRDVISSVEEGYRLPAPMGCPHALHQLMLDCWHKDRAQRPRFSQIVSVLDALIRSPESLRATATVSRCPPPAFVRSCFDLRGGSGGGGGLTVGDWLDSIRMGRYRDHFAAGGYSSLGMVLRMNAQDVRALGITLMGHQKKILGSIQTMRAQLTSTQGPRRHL

Sequence of off-target kinases (Homo sapiens, UniProt O00443) (O00443 whole entry): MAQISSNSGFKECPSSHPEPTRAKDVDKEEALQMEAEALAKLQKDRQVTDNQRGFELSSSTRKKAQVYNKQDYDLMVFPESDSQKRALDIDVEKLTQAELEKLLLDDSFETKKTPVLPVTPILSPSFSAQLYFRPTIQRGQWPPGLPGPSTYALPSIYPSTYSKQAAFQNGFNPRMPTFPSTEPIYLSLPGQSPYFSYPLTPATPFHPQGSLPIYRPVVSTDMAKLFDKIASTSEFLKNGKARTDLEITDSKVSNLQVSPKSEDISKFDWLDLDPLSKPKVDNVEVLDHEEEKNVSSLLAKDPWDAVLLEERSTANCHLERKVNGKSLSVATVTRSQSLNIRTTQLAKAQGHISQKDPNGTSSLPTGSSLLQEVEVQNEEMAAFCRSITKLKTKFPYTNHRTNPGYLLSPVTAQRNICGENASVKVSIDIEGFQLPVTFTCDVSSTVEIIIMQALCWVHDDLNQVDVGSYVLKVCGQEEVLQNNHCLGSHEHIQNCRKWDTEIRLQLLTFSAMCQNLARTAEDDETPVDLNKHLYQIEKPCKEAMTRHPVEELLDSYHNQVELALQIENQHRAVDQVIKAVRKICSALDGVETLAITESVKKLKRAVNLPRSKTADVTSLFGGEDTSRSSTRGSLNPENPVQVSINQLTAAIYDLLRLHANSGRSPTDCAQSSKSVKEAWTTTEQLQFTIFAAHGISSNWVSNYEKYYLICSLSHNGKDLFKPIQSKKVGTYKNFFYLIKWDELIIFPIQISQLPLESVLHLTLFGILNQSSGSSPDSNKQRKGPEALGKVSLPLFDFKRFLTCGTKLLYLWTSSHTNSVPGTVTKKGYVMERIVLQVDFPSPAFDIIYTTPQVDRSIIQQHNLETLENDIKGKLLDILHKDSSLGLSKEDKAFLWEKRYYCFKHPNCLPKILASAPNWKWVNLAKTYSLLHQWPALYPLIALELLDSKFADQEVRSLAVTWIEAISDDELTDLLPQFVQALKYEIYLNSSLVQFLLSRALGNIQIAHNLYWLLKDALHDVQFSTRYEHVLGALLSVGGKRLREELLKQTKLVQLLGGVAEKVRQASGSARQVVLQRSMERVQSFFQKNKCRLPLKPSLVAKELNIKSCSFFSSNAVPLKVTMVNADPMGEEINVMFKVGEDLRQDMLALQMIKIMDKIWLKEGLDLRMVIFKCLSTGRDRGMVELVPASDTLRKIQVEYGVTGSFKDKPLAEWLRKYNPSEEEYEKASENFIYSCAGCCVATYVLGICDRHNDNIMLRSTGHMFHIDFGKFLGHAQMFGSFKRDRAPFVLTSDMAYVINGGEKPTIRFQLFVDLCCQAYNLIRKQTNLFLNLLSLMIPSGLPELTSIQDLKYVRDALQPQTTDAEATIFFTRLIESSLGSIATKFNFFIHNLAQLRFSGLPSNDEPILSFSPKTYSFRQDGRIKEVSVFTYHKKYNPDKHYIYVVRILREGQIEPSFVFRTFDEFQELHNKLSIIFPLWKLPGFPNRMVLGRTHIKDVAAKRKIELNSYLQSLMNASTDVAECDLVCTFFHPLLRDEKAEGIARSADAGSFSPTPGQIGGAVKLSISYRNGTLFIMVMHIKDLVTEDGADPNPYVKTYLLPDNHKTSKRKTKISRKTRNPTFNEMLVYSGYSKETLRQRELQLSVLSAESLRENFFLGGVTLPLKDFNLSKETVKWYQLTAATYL
Sequence of off-target kinases (Homo sapiens, UniProt Q02779) (Q02779 whole entry): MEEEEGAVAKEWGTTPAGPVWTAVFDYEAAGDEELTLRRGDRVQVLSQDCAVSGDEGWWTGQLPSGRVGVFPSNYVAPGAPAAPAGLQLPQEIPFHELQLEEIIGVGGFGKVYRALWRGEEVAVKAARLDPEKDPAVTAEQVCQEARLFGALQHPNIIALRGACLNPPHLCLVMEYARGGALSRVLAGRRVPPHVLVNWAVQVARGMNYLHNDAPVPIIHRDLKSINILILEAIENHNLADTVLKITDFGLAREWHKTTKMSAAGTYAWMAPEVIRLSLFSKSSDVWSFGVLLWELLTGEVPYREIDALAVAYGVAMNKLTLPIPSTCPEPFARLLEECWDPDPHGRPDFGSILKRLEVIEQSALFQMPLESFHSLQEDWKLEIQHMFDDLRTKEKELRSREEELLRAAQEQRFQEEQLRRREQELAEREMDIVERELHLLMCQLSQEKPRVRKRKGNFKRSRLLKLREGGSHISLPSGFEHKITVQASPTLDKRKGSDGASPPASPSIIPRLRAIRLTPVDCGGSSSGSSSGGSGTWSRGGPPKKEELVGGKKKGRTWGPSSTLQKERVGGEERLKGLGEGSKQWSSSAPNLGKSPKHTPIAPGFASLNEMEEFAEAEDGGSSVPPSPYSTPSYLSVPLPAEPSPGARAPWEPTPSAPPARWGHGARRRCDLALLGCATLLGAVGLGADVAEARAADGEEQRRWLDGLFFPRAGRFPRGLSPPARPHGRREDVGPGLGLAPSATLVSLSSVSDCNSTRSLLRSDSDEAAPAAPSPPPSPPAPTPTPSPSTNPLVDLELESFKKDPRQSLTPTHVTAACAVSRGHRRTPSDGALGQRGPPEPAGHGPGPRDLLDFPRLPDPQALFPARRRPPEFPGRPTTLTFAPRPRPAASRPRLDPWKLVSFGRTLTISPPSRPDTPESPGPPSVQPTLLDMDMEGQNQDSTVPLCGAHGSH

Structure (SMILES): N#Cc1cc(-c2ncnc(Nc3ccc(N4CCN(C5COC5)CC4)cc3)n2)ccc1OC1CCOCC1 [Compound 1, 5-(4-((4-(4-(oxetan-3-yl)piperazin-1-yl)phenyl)amino)-1,3,5-triazin-2-yl)-2-((tetrahydro-2H-pyran-4-yl)oxy)benzonitrile]
- inhibition (off-target kinases [1]; read-out: % Inhibition 1): 10%
- inhibition (off-target kinases [1]; read-out: % Inhibition 2): 9%
- inhibition (off-target kinases [1]; read-out: % Inhibition Avg): 10%
- % Inhibition 1 (off-target kinases [2]): −7%
- % Inhibition 2 (off-target kinases [2]): −9%
- % Inhibition Avg (off-target kinases [2]): −8%
- inhibition (off-target kinases [3]; read-out: % Inhibition 1): 58%
- inhibition (off-target kinases [3]; read-out: % Inhibition 2): 60%
- inhibition (off-target kinases [3]; read-out: % Inhibition Avg): 59%
- inhibition (off-target kinases [4]; read-out: % Inhibition 1): 11%
- inhibition (off-target kinases [4]; read-out: % Inhibition 2): 7%
- inhibition (off-target kinases [4]; read-out: % Inhibition Avg): 9%
